# In patent US4377592A, “Antiarrhythmic activity of cetiedil” (Innothera, priority 1979, dated 1983):
# Counter-ions that a name gives are not always drawn. Like-named read-outs stand apart in the source and are kept apart here.
# What was measured:
# [1] = tested on: isolated guinea-pig atrial; assay: Stimulated isolated guinea pig atrial (technique of Dawes); type: cell-based
# Source text: (§1) The technique of DAWES (modified by ALLIES ET AL.) was used with the isolated guinea-pig atrial, and the technique of DUCHENE-MARULLAZ, J. Pharmacol. Paris, 1970, 1, 539, in the anaesthetized dog. This method is used to study the permeability of atrio-ventricular conduction, and thus more precisely conduction at the level of Tawara's nod.
# [2] = tested on: rabbit cornea oculo-palpebral reflex; type: in vivo; details: for TOTAL DEGREE OF ANAESTHESIA FOR 60 minutes: rabbit cornea, 1.00 g./100, HCl salt, total 13 no anaesthesia, 1300 complete; for local anaesthetic effect compared with cetiedil 0.5%: rabbit
# Source text: For the purpose of this study, the classical technique of REGNIER J., Thesis Doct. […] This consists of repeating touching of the rabbit cornea until an oculo-palpebral reflex is obtained. It should be noted that […], in common with the reference substances, was used in the form of the HCl Salt.
# [3] = tested on: chloroform-induced ventricular fibrillation; assay: Chloroform-induced ventricular fibrillation in the mouse; type: in vivo
# Source text: In this technique first described by LAWSON, J. W. in J. Pharm. Exp. Ther. 1968, 160, 22 and Vargaftig, B. B. et al in Eur. J. Pharmacol. 1969, 6, 49, the inhalation of chloroform vapour produced in the mouse apnea followed by ventricular fibrillation.
# The mechanism of this technique remains unknown.
# [4] = in vivo; details: mouse, iv
# [5] = tested on: ventricular fibrillation induced by CaCl2; assay: Calcium (CaCl2) induced ventricular fibrillation in the anaesthetized rat, Malinow's technique; type: in vivo; details: for index LD50/AD50 (ventricular fibrillation): Table 2; for RELATIVE ACTIVITY (ventricular fibrillation): Table 2, relative to cetiedil = 1; for RELATIVE ACTIVITY (death): Table 3, relative to cetiedil = 1
# Procedure: According to MALINOW, M. R., et coll. Acta. Physiol Latino. Americ.
# Using the anaesthetized rat, 200 mg/kg of CaCl2 was injected two minutes after the substances to be tested. The ECG was recorded continuously in lead II.
# [6] = tested on: atrio-ventricular conduction; assay: Atrio-ventricular conduction in the anaesthetized dog (Duchene-Marullaz); type: in vivo
# Source text: as §1
# [7] = tested on: chloroform-induced ventricular fibrillation; details: mouse, chloroform test, IP; other substances from Linee thesis 1975; cited from earlier work
# [8] = tested on: polymorphous arrhythmias induced by adrenaline petrol-ether; assay: Polymorphous arrhythmias induced in the anaesthetised guinea-pig by adrenaline and petrol ether; type: in vivo; details: for ED50: Cavia porcellus, ip, read-out: ED50 (dose decreasing by half the duration of the disturbances); for index I = LD50 IV/ED50: Table 1, adrenaline petrol-ether, guinea-pig ED50, mouse LD50; for RELATIVE ACTIVITY: Table 1, relative to cetiedil = 1
# Source text: Adrenaline in high dosage is a powerful arrhythmogenic stimulus to a myocardia induced by petrol ether, as recognized in the guinea-pig by LE MARECHAL J., Thesis Doct.
# [9] = tested on: rat aortic fragments; assay: Contraction of rat aorta fragment induced by potassium depolarisation; type: cell-based; details: mean ± SD, potassium depolarisation
# Procedure: Fragments of aorta removed from rats are immersed in survival fluid in the presence of carbogene at 37° C. By modifying the ionic equilibrium of the survival medium, it was possible to study the effects of […] on contraction of the aortic fragments induced by depolarisation with potassium or calcium.
# [10] = tested on: ventricular tachycardia induced by Ouabain; assay: Ouabain induced ventricular tachycardia in the dog (Lucchesi and Hardman); type: in vivo; details: at the average effective dose
# Source text: The method used is that of […] and HARDMAN, J. Pharmacol. Exp. Ther. 1961, 132, 372-381. Ventricular tachycardia was obtained by the sequential administration of Ouabain until a permanent ventricular tachycardia developed. Following observation of the effect of the substance, the reappearance of this ventricular tachycardia following the injection of insulin was confirmed, thereby showing the persistence within the heart of a toxic dose of Ouabain (Average dose of Ouabain 71.25 γ kg IV).
# [11] = mouse, chloroform vapour inhalation, IP, read-out: ED50
# [12] = Rattus norvegicus, iv, read-out: AD50 protection against death
# [13] = Rattus norvegicus, iv, read-out: AD 50 protection against ventricular fibrillation
# [14] = guinea-pig, urethane 1.2 g/kg IP, substance 5 minutes before intoxication
# [15] = anaesthetized rat, CaCl2 200 mg/kg IV two minutes after substance, read-out: AD 50 protection against ventricular fibrillation
structure (smiles),measurement,setting,value
CC(C)N(CCC(C(N)=O)(c1ccccc1)c1ccccn1)C(C)C (stereo not drawn) [DISOPYRAMIDE],% DECREASE SPONTANEOUS RATE,[1]; concentration 10^-5,8%
same,% DECREASE m.f.s. (maximum frequency followed by the atrial),[1]; concentration 10^-5,18%
same,% DECREASE SPONTANEOUS RATE,[1]; concentration 10^-6,6%
same,% DECREASE m.f.s. (maximum frequency followed by the atrial),[1]; concentration 10^-6,6%
COC(=O)[C@H]1[C@@H](OC(=O)c2ccccc2)C[C@@H]2CC[C@H]1N2C [COCAINE],TOTAL DEGREE OF ANAESTHESIA FOR 60 minutes,[2],706.4
same,local anaesthetic effect compared with cetiedil 0.5%,[2]; 1 p.100,same effect
C=C[C@H]1C[N@@]2CC[C@H]1C[C@@H]2[C@@H](O)c1ccnc2ccc(OC)cc12 [Quinidine],ED50,[3]; [11],26 mg/kg
same,% DECREASE SPONTANEOUS RATE,[1]; concentration 10^-5,15%
same,% DECREASE m.f.s. (maximum frequency followed by the atrial),[1]; concentration 10^-5,25%
same,% DECREASE SPONTANEOUS RATE,[1]; concentration 10^-6,3%
same,% DECREASE m.f.s. (maximum frequency followed by the atrial),[1]; concentration 10^-6,10%
same,% DECREASE SPONTANEOUS RATE,[1]; concentration 10^-7,0%
same,LD50,[4],67 mg/kg
same,ED50,[5]; [12],8 mg/kg
same,ED50,[5]; [13],5.5 mg/kg
same,effect on atrio-ventricular conduction after denervation,"[6]; anaesthetized dog, denervated",Depression of atrio-ventricular conduction is significant and proportional to the dose administered
same,effect on atrio-ventricular conduction,"[6]; anaesthetized dog, intact",not changed in the intact animal
same,chronotropic effect,[6]; dog,positive or negative action according to whether the dog is intact or denervated
CN1[C@@H]2CC[C@H]1C[C@@H](OC(=O)C(CO)c1ccccc1)C2 (stereo partly drawn) [Atropine],ED50,[7],100 mg/kg IP
CC[C@H]1[C@@H]2C[C@H]3[C@@H]4N(C)c5ccccc5[C@]45C[C@@H]([C@H]2[C@H]5O)N3[C@@H]1O [Ajmaline],ED50,[8],0.6 mg/kg
same,index I = LD50 IV/ED50,[8],43.33
same,RELATIVE ACTIVITY,[8],0.91
same,ED50,"[3]; Mus musculus, ip",6.6 mg/kg
same,LD50,[4],26 mg/kg
same,ED50,[5]; [12],> 5 mg/kg
same,ED50,[5]; [13],2.25 mg/kg
same,index LD50/AD50 (ventricular fibrillation),[5],"11,56"
same,RELATIVE ACTIVITY (ventricular fibrillation),[5],"0,62"
same,protection against death,"[5]; rat, dose of 5 mg/kg",none against death
same,protection against ventricular fibrillation,"[5]; rat, dose of 5 mg/kg",protected all of the animals against ventricular fibrillation
CCN(CC)CCNC(=O)c1ccc(N)cc1 [Procainamide],ED50,[8]; [14],1.4 mg/kg
same,index I = LD50 IV/ED50,[8],75.00
same,RELATIVE ACTIVITY,[8],1.58
same,ED50,[3]; [11],80 mg/kg
same,LD50,[4],105 mg/kg
same,ED50,[5]; [12],17 mg/kg
same,index LD50/AD50 (ventricular fibrillation),[5],"7,24"
same,RELATIVE ACTIVITY (ventricular fibrillation),[5],"0,39"
same,index LD50/AD50 (death),[5]; Table 3,6.18
same,RELATIVE ACTIVITY (death),[5],0.38
same,ED50,[5]; [15],14.5 mg/kg
CN(C)CCCN1c2ccccc2CCc2ccccc21 [Imipramine],ED50,[7],30 mg/kg IP
COC(=O)[C@@H]1[C@H]2C[C@H]3c4[nH]c5ccccc5c4CCN3C[C@@H]2CC[C@@H]1O [Yohimbine],ED50,[7],10 mg/kg IP
CCN(CC)CCOC(=O)c1ccc(N)cc1 [PROCAINE],TOTAL DEGREE OF ANAESTHESIA FOR 60 minutes,[2],61.5
same,local anaesthetic effect compared with cetiedil 0.5%,[2]; 1 p.100,only half less active
same,pD'2 (mean),[9],2.55 ± 0.06
"C=C[C@H]1C[N@@]2CC[C@H]1C[C@@H]2[C@@H](O)c1ccnc2ccc(OC)cc12 [Quinidine sulfate, reference compound]",duration of return to sinus rhythm,[10],less than 30 min
CC(C)NCC(O)COc1cccc2ccccc12 (stereo not drawn) [Propranolol],TOTAL DEGREE OF ANAESTHESIA FOR 60 minutes,[2],876.5
same,local anaesthetic effect compared with cetiedil 0.5%,[2]; in vivo,same effect
same,ED50,[8]; [14],0.38 mg/kg
same,RELATIVE ACTIVITY,[8],1.22
same,% DECREASE m.f.s. (maximum frequency followed by the atrial),[1]; concentration 10^-6,34%
same,% DECREASE m.f.s. (maximum frequency followed by the atrial),[1]; concentration 10^-7,7%
same,ED50,[5]; [12],3.9 mg/kg
same,RELATIVE ACTIVITY (ventricular fibrillation),[5],"0,36"
same,RELATIVE ACTIVITY (death),[5],0.35
same,ED50,[5]; [15],3.25 mg/kg
